Assay results: US20090169585A1, “Resveratrol-Containing Compositions And Their Use In Modulating Gene Product Concentration Or Activity” (Resveratrol Partners, LLC, priority 2003, published 2009)
Read-outs that look alike come from different tables or passages of the source.

Legend:
[1] = test system: rhabdomyosarcoma cells; conditions: low dosage; cited from earlier work
[2] = test system: injected tumors; conditions: mice with injected tumors; cited from earlier work
[3] = test system: human umbilical vein epithelial cells; conditions: of 10,000 genes probed; cited from earlier work
[4] = test system: genes of the oxidative phosphorylation pathway (GO:0006119); test: Cardiac gene expression array: oxidative phosphorylation genes; type: in vivo, mice; conditions: mouse cardiac tissue vs control
[5] = test system: expression of 20,341 genes in brain tissue; test: Gene expression in brain tissue; type: in vivo, mice
[6] = test system: genes involved in 220 biological processes; test: Biochemical pathways / biological processes affected (Table 5); type: in vivo, mice
[7] = 1100 IU, 4-year period; cited from earlier work
[8] = test system: breast cancer cells; conditions: cited from earlier work
[9] = 3500 IU per day; cited from earlier work
[10] = 2000 IU per day; cited from earlier work

For `O=P(O)(O)OC1C(OP(=O)(O)O)C(OP(=O)(O)O)C(OP(=O)(O)O)C(OP(=O)(O)O)C1OP(=O)(O)O` (centres unmarked) [IP6, (2,3,4,5,6-pentaphosphonooxycyclohexyl) dihydrogen phosphate], the “suppression of growth of rhabdomyosarcoma cells” value [1] is given as 50% and the “tumor size vs non-treated mice” value [2] is given as 50 times smaller.
In the case of `COc1cc(/C=C/C(=O)O)ccc1O` [ferulic acid], the “genes with greater than 2-fold down-regulation” value [3] is given as 363 genes and the “genes with greater than 2-fold up-regulation” value [3] is given as 233 genes.
For `O=c1c(O)c(-c2ccc(O)c(O)c2)oc2cc(O)cc(O)c12` [quercetin, 3,3′,4′,5,7-pentahydroxy-2-phenylchromen-4-one], the “genes with greater than 2-fold down-regulation” value [3] is given as 363 genes and the “genes with greater than 2-fold up-regulation” value [3] is given as 233 genes.
For `Oc1ccc(/C=C/c2cc(O)cc(O)c2)cc1` [resveratrol, 3,4′,5-trihydroxy-trans-stilbene], the “FC Cox4i2” value [4] was 1.50, the “FC Ndufaf1” value [4] was −1.20 and the “FC Ndufc1” value [4] was 1.20. For the same compound, the “FC Ndufc2” value [4] was −1.30, the “FC Ndufs2” value [4] was 1.10 and the “number of genes exhibiting altered expression” value ([5]; animals receiving only this treatment, P<0.01) was 424 genes. The “number of genes exhibiting altered expression” value ([5]; resveratrol and calorie reduced diet) was 10 genes, the “Genes changed: Telomere Maintenance” value ([6]; GO: 0000723, 17 genes in series, P<0.05) was 3 and the “Genes changed: Endochondral Ossification” value ([6]; GO: 0001958, 8 genes in series, P<0.05) was 2. The “Genes changed: Carbohydrate Metabolic Process” value ([6]; GO: 0005975, 316 genes in series, P<0.05) was 21, the “Genes changed: Polysaccharide Metabolic Process” value ([6]; GO: 0005976, 42 genes in series, P<0.05) was 9 and the “Genes changed: Glycogen Metabolic Process” value ([6]; GO: 0005977, 31 genes in series, P<0.05) was 7. For the same compound, the “Genes changed: Generation Of Precursor Metabolites And Energy” value ([6]; GO: 0006091, 390 genes in series, P<0.05) was 24, the “Genes changed: Energy Reserve Metabolic Process” value ([6]; GO: 0006112, 35 genes in series, P<0.05) was 7 and the “Genes changed: DNA Repair” value ([6]; GO: 0006281, 178 genes in series, P<0.05) was 13. The “Genes changed: Transcription Termination” value ([6]; GO: 0006353, 6 genes in series, P<0.05) was 2, the “Genes changed: Translation” value ([6]; GO: 0006412, 338 genes in series, P<0.05) was 25 and the “Genes changed: Translational Initiation” value ([6]; GO: 0006413, 40 genes in series, P<0.05) was 6. The “Genes changed: Regulation Of Translational Initiation” value ([6]; GO: 0006446, 20 genes in series, P<0.05) was 4, the “Number of genes affected: Protein Folding” value ([6]; GO: 0006457, 124 genes in series, P<0.05) was 13 and the “Genes changed: Ubiquitin-Dependent Protein Catabolic Process” value ([6]; GO: 0006511, 109 genes in series, P<0.05) was 9. The “Genes changed: Ubiquitin Cycle” value ([6]; GO: 0006512, 356 genes in series, P<0.05) was 27, the “Genes changed: Polyamine Biosynthetic Process” value ([6]; GO: 0006596, 5 genes in series, P<0.05) was 2 and the “Genes changed: Protein Targeting” value ([6]; GO: 0006605, 161 genes in series, P<0.05) was 12. The “Genes changed: Protein Targeting To Peroxisome” value ([6]; GO: 0006625, 5 genes in series, P<0.05) was 2, the “Genes changed: Copper Ion Transport” value ([6]; GO: 0006825, 9 genes in series, P<0.05) was 3 and the “Genes changed: Intracellular Protein Transport” value ([6]; GO: 0006886, 357 genes in series, P<0.05) was 26. The “Genes changed: ER To Golgi Vesicle-Mediated Transport” value ([6]; GO: 0006888, 16 genes in series, P<0.05) was 3, the “Genes changed: Caspase Activation” value ([6]; GO: 0006919, 16 genes in series, P<0.05) was 3 and the “Genes changed: Response To DNA Damage Stimulus” value ([6]; GO: 0006974, 217 genes in series, P<0.05) was 15. For the same compound, the “Genes changed: ER Overload Response” value ([6]; GO: 0006983, 5 genes in series, P<0.05) was 2, the “Number of genes affected: Organelle Organization And Biogenesis” value ([6]; GO: 0006996, 897 genes in series, P<0.05) was 53 and the “Number of genes affected: Cytoskeleton Organization And Biogenesis” value ([6]; GO: 0007010, 403 genes in series, P<0.05) was 26. The “Genes changed: Microtubule-Based Process” value ([6]; GO: 0007017, 155 genes in series, P<0.05) was 12, the “Number of genes affected: Microtubule-Based Movement” value ([6]; GO: 0007018, 72 genes in series, P<0.05) was 9 and the “Genes changed: Mitotic Metaphase/Anaphase Transition” value ([6]; GO: 0007091, 8 genes in series, P<0.05) was 2. For the same compound, the “Genes changed: Female Meiosis” value ([6]; GO: 0007143, 8 genes in series, P<0.05) was 2, the “Genes changed: Transmembrane Receptor Protein Serine/Threonine Kinase Signaling Pathway” value ([6]; GO: 0007178, 75 genes in series, P<0.05) was 7 and the “Genes changed: Small Gtpase Mediated Signal Transduction” value ([6]; GO: 0007264, 320 genes in series, P<0.05) was 22. For the same compound, the “Number of genes affected: Regulation Of Actin Polymerization And/Or Depolymerization” value ([6]; GO: 0008064, 30 genes in series, P<0.05) was 4, the “Genes changed: Protein Localization” value ([6]; GO: 0008104, 663 genes in series, P<0.05) was 38 and the “Number of genes affected: Actin Polymerization And/Or Depolymerization” value ([6]; GO: 0008154, 39 genes in series, P<0.05) was 6. The “Genes changed: Isoprenoid Biosynthetic Process” value ([6]; GO: 0008299, 19 genes in series, P<0.05) was 3, the “Genes changed: RNA Splicing” value ([6]; GO: 0008380, 162 genes in series, P<0.05) was 12 and the “Genes changed: Biosynthetic Process” value ([6]; GO: 0009058, 979 genes in series, P<0.05) was 60. For the same compound, the “Genes changed: Macromolecule Biosynthetic Process” value ([6]; GO: 0009059, 525 genes in series, P<0.05) was 35, the “Genes changed: Protein Transport” value ([6]; GO: 0015031, 581 genes in series, P<0.05) was 38 and the “Genes changed: Modification-Dependent Protein Catabolic Process” value ([6]; GO: 0019941, 111 genes in series, P<0.05) was 9. The “Number of genes affected: Actin Filament Polymerization” value ([6]; GO: 0030041, 17 genes in series, P<0.05) was 3, the “Number of genes affected: Regulation Of Actin Filament Length” value ([6]; GO: 0030832, 31 genes in series, P<0.05) was 4 and the “Genes changed: Cellular Response To Stress” value ([6]; GO: 0033554, 14 genes in series, P<0.05) was 3. The “Genes changed: Positive Regulation Of Enzyme Activity” value ([6]; GO: 0043085, 40 genes in series, P<0.05) was 5, the “Genes changed: Positive Regulation Of Caspase Activity” value ([6]; GO: 0043280, 17 genes in series, P<0.05) was 3 and the “Genes changed: Regulation Of Caspase Activity” value ([6]; GO: 0043281, 27 genes in series, P<0.05) was 5. For the same compound, the “Genes changed: Cellular Biosynthetic Process” value ([6]; GO: 0044249, 710 genes in series, P<0.05) was 45, the “Genes changed: Cellular Carbohydrate Metabolic Process” value ([6]; GO: 0044262, 221 genes in series, P<0.05) was 18 and the “Genes changed: Establishment Of Protein Localization” value ([6]; GO: 0045184, 610 genes in series, P<0.05) was 38. The “Genes changed: Interferon Type I Biosynthetic Process” value ([6]; GO: 0045351, 6 genes in series, P<0.05) was 2, the “Genes changed: Cell Redox Homeostasis” value ([6]; GO: 0045454, 40 genes in series, P<0.05) was 6 and the “Genes changed: Regulation Of B Cell Differentiation” value ([6]; GO: 0045577, 8 genes in series, P<0.05) was 2. The “Genes changed: Positive Regulation Of JNK Cascade” value ([6]; GO: 0046330, 8 genes in series, P<0.05) was 2, the “Number of genes affected: Intracellular Transport” value ([6]; GO: 0046907, 523 genes in series, P<0.05) was 43 and the “Genes changed: Golgi Vesicle Transport” value ([6]; GO: 0048193, 37 genes in series, P<0.05) was 6. For the same compound, the “Genes changed: Epithelial Cell Proliferation” value ([6]; GO: 0050673, 30 genes in series, P<0.05) was 4, the “Number of genes affected: Regulation Of Catalytic Activity” value ([6]; GO: 0050790, 241 genes in series, P<0.05) was 21 and the “Genes changed: Barbed-End Actin Filament Capping” value ([6]; GO: 0051016, 17 genes in series, P<0.05) was 3. For the same compound, the “Number of genes affected: Protein Polymerization” value ([6]; GO: 0051258, 32 genes in series, P<0.05) was 6, the “Number of genes affected: Establishment Of Cellular Localization” value ([6]; GO: 0051649, 653 genes in series, P<0.05) was 45 and the “biological processes with affected genes” value ([6]; resveratrol to calorie restricted mice) was “failed to affect any genes in any of these processes”. The “share of the 220 biological processes with affected genes” value ([6]; this treatment, P<0.05) was 10%.
In the case of `C=C1CC[C@H](O)C/C1=C/C=C1\CCC[C@]2(C)[C@@H]([C@H](C)CCCC(C)C)CC[C@@H]12` [vitamin D3, cholecalciferol], the “reduction in cancer risk” value [7] is given as 60-77%, the “reduction of the number of breast cancer cells” value ([8]; higher concentrations of vitamin D3 alone, lab dish) is given as “about 25%” and the “reduction of the number of breast cancer cells” value ([8]; higher concentrations of vitamin D3 combined with resveratrol) is given as 50%. The “breast tumor cell growth” value ([8]; low-dose vitamin D3 alone) was “does not reduce breast tumor cell growth” and the “decline of tumor cell numbers” value ([8]; low-dose vitamin D3 combined with resveratrol) was 40%.
In the case of vitamin D, the “risk for breast cancer” value [9] is given as “halved” and the “risk of colon cancer” value [10] is given as “halved”.
